These results are taken from patent US7045361B2, “Analyte sensing via acridine-based boronate biosensors” (Medtronic MiniMed, Inc., priority 2001, dated 2006).

Data set [1] is described as follows: Comparative analysis of the spectral properties of fluorophores. To be noted: for λem(max) / λex / λem(50% max): PBS containing 0.5% DMSO at 21° C; for λem(50% max): bathochromic wavelength at 50% of maximum. The data set is classed as physicochemical. The source says:
A comparative analysis of the spectral properties of certain fluorophores is shown Table 1. […] This phenomenon is unexpected given the chemical similarity between anthracene and an acridine. As shown in the Table 1, the acridine orange fluorophore emits at even longer wavelengths.

Data set [2] can be described thus: Glucose transduction of monotopic acridine-based boronate biosensor molecules by fluorescence spectroscopy. To be noted: for wavelength of maximum intensity (Imax): PBS with DMSO. The method, then:
Glucose transduction of particular acridine-based boronate bio sensor molecules was observed using fluorescence spectroscopy. Fluorescence measurements were taken on a Yorbin Fluorolog instrument. […]
Aliquots of glucose were added and responses were measured at 436 nm, or maximum intensity. (See Table 3).
Another transduction experiment was performed with ACRAB at 500 nm, or approximately 25% of the value of maximum intensity. The data taken at 500 nm generally parallel those taken at 436 nm, thus indicating no decrease in performance of the acridine-based boronate biosensor molecule at the longer wavelength. This shift of 83 nm is very significant in that it provides about a 10-fold increase of transmission of light through tissue and skin.
MEACRAB was then diluted 100-fold to 100 nM and transduction at conditions of ambient temperature. The solution contained 0.5% DMSO.

Data set [3] in a line: Emission spectra in presence and absence of glucose (FIG. 14A/14B transduction experiment). The source says:
FIG. 14A depicts the results of a transduction experiment with anthracene boronate.
FIG. 14B depicts the results of a transduction experiment with methylacridine boronate (MEACRAB) in the presence of glucose.
A comparison of anthracene boronate and methylacridine boronate (MEACRAB) in the presence and absence of glucose further highlights the unexpected differences between these two fluorescent molecules in terms of their respective fluorescent properties, such as transduction of glucose at longer wavelengths, i.e., glucose sensing capacity as indicated by a change in fluorescence in the presence of glucose at longer wavelengths. These differences are illustrated in FIG. 14A and FIG. 14B, which depicts the emission spectra of anthracene boronate and methylacridine boronate, respectively in the presence and absence of glucose. From inspection of FIG. 14A, it can be observed that at about 440 nm, which is about at a peak of next to maximum intensity, anthracene boronate yields about 25% transduction in the presence of glucose. […] For instance, at about 500 nm, methylacridine boronate yields about 25% transduction in the presence of glucose. Thus, the ability of an acridine boronate, such as methylacridine boronate, to transduce in the presence of glucose at longer wavelengths, as compared with anthracene boronate, is unexpected. […]

With `CN(C)c1ccc2cc3ccc(N(C)C)cc3nc2c1` [Acridine Orange, 3,6-bis(dimethylamino)acridine], in data set [1], the “emission profile detectable out to” value was 575–600 nm, the maximum emission is given as 525 nm, the “λem(max)” value worked out at 526 nm and the λex came out at 493 nm. Also, in data set [1], the “λem(50% max)” value is 567 nm.

With `c1ccc2cc3ccccc3cc2c1` [Anthracene], in data set [1], the “λem(max)” value was 417 nm, the λex worked out at 370 nm, the “λem(50% max)” value is recorded as 428 nm and the “emission intensity at about 480 nm relative to intensity of maximum emission wavelength” value is listed as “no detectable emission”.

Consider “aminomethylhydroxypentyl-acridine boronate [ACRAB]”, for which the “intensity at 500 nm relative to the value of maximum intensity” value in data set [2] (500 nm) is “approximately 25%”. The Transduction was 11% in data set [2] (500 nm, glucose 49 mg/dL); 24% in data set [2] (500 nm, glucose 149 mg/dL); 37% in data set [2] (500 nm, glucose 198 mg/dL); 47% in data set [2] (500 nm, glucose 284 mg/dL); 56% in data set [2] (500 nm, glucose 374 mg/dL); 62% in data set [2] (500 nm, glucose 441 mg/dL). For the same compound, the Transduction in data set [2] (500 nm, glucose 559 mg/dL) worked out at 67%; in data set [2] (approx 10 μM, PBS pH 7.4, 0.5% DMSO, 436 nm, glucose 50 mg/dL) it was 15%; in data set [2] (approx 10 μM, PBS pH 7.4, 0.5% DMSO, 436 nm, glucose 150 mg/dL), 27%; in data set [2] (approx 10 μM, PBS pH 7.4, 0.5% DMSO, 436 nm, glucose 200 mg/dL), 41%; in data set [2] (approx 10 μM, PBS pH 7.4, 0.5% DMSO, 436 nm, glucose 300 mg/dL), 48%. The “wavelength of maximum intensity (Imax)” value in data set [2] was 436 nm.

As to `Cc1ccc2nc3ccccc3c(CN(CCCCCO)Cc3ccccc3B(O)O)c2c1` [MEACRAB, aminomethylhydroxypentyl-methylacridine boronate], the “transduction in the presence of glucose” value in data set [3] (at about 440 nm) is reported as “about 50%”; in data set [3] (at about 500 nm), “about 25%”. The Transduction was 21% in data set [2] (100 nM, 0.5% DMSO, ambient temperature, 509 nm, glucose 87 mg/dL); 29% in data set [2] (100 nM, 0.5% DMSO, ambient temperature, 509 nm, glucose 173 mg/dL); 53% in data set [2] (100 nM, 0.5% DMSO, ambient temperature, 509 nm, glucose 256 mg/dL); 77% in data set [2] (100 nM, 0.5% DMSO, ambient temperature, 509 nm, glucose 341 mg/dL); 94% in data set [2] (100 nM, 0.5% DMSO, ambient temperature, 509 nm, glucose 425 mg/dL); 109% in data set [2] (100 nM, 0.5% DMSO, ambient temperature, 509 nm, glucose 510 mg/dL). Besides, the Transduction in data set [2] (100 nM, 0.5% DMSO, ambient temperature, 509 nm, glucose 603 mg/dL) came to 118%; in data set [2] (100 nM, 0.5% DMSO, ambient temperature, 509 nm, glucose 683 mg/dL) it was 121%; in data set [2] (100 nM, 0.5% DMSO, ambient temperature, 509 nm, glucose 767 mg/dL), 126%; in data set [2] (100 nM, 0.5% DMSO, ambient temperature, 509 nm, glucose 834 mg/dL), 134%; in data set [2] (100 nM, 0.5% DMSO, ambient temperature, 509 nm, glucose 927 mg/dL), 142%; in data set [2] (100 nM, 0.5% DMSO, ambient temperature, 509 nm, glucose 1012 mg/dL), 158%. The Transduction in data set [2] (10 μM in PBS, 4% DMSO, 500 nm, glucose 93 mg/dL) stood at 30%; in data set [2] (10 μM in PBS, 4% DMSO, 500 nm, glucose 184 mg/dL) it was 60%; in data set [2] (10 μM in PBS, 4% DMSO, 500 nm, glucose 275 mg/dL), 100%; in data set [2] (10 μM in PBS, 4% DMSO, 500 nm, glucose 364 mg/dL), 120%; in data set [2] (10 μM in PBS, 4% DMSO, 500 nm, glucose 459 mg/dL) it was 170%; in data set [2] (10 μM in PBS, 4% DMSO, 500 nm, glucose 547 mg/dL), 190%. Besides, the Transduction in data set [2] (10 μM in PBS, 4% DMSO, 500 nm, glucose 650 mg/dL) is 220%. In addition, the “intensity at 500 nm relative to the value of maximum intensity” value in data set [2] (500 nm) is listed as 25%. Besides, the “wavelength of maximum intensity (Imax)” value in data set [2] is on record as 438 nm. Further, the “performance at 100 nM compared with ACRAB, or MEACRAB itself, at 10 μM” value in data set [2] (emission wavelength of 500 nm, 0.5% DMSO) was “performed better”.

As to `c1ccc2nc3ccccc3cc2c1` [Acridine], in data set [1], the “λem(max)” value was 428 nm, the λex was found to be 360 nm, the “λem(50% max)” value was found to be 480 nm and the “emission intensity at about 480 nm relative to intensity of maximum emission wavelength” value is reported as “approximately 50%”.
